Experimental data as given in ChEMBL document CHEMBL4483862, “Open-source discovery of chemical leads for next-generation chemoprotective antimalarials” (2018).

Tested on: Plasmodium berghei
Experiment: Luciferase/luciferin-expressing antifolate-resistant parasites were used to infect a culture of HepG2 cells that were pre-incubated with compounds. Infected hepatocytes emit light due to the luciferase reaction. Assay results are presented as the percent inhibition of light emission compared to control. […]
Type: functional
Settings: sporozoite; for IC90: read-out: LUCIFERASE INFECTION ASSAY - IC90
[1] = PBLUC_HILL_SLOPE 3.93, PBLUC_R_SQUARED 0.959, read-out: LUCIFERASE INFECTION ASSAY - IC50

SMILES | IC90 [µM] | also measured
Cc1nn(Cc2ccccc2)c(Cl)c1/C=C/C(=O)OC(C)C(=O)N1CCCC1 (configuration not stated) | 4.19 | IC50 (PBLUC_HILL_SLOPE 3.98, PBLUC_R_SQUARED 0.412, read-out: LUCIFERASE INFECTION ASSAY - IC50): 2.41 µM
Cc1ccc(NC(=O)Nc2ccc(Cl)c(Cl)c2)nc1 | 9.58 | IC50 (PBLUC_HILL_SLOPE 3.93, PBLUC_R_SQUARED 0.477, read-out: LUCIFERASE INFECTION ASSAY - IC50): 5.48 µM
COc1cc(OC)cc(-c2cnc3cnc(-c4cccc(OC(C)C)c4)cn23)c1 | > 8.47 | IC50 (PBLUC_HILL_SLOPE 3.99, PBLUC_R_SQUARED 0.348, read-out: LUCIFERASE INFECTION ASSAY - IC50): 6.48 µM
Cc1ccc(C)c(S(=O)(=O)N(CC(=O)N2CCN(C(=O)c3ccco3)CC2)c2cccc(C(F)(F)F)c2)c1 | 8.16 | IC50 (PBLUC_HILL_SLOPE 4.06, PBLUC_R_SQUARED 0.673, read-out: LUCIFERASE INFECTION ASSAY - IC50): 4.75 µM
NS(=O)(=O)c1ccc(CCNC(=O)COc2ccccc2Cc2ccccc2)cc1 | 9.31 | IC50 (PBLUC_HILL_SLOPE 4.18, PBLUC_R_SQUARED 0.0848, read-out: LUCIFERASE INFECTION ASSAY - IC50): 5.51 µM
COc1ccc(-c2cnc3cnc(/C=C/c4ccccc4)cn23)cc1 | 2.11 | IC50 (PBLUC_HILL_SLOPE 3.95, PBLUC_R_SQUARED 0.779, read-out: LUCIFERASE INFECTION ASSAY - IC50): 1.21 µM
CCOC(=O)c1c(C)oc2nc(CN(C)Cc3ccc(OCC)cc3)nc(N)c12 | 8.75 | IC50 (PBLUC_HILL_SLOPE 4.1, PBLUC_R_SQUARED 0.674, read-out: LUCIFERASE INFECTION ASSAY - IC50): 5.12 µM
Cc1nc2cc(NC(=O)CCCSc3nc4ccccc4[nH]3)ccc2o1 | > 10 | IC50 (PBLUC_HILL_SLOPE 4.06, PBLUC_R_SQUARED 0.0694, read-out: LUCIFERASE INFECTION ASSAY - IC50): 9.96 µM
CCOc1ccc2c(c1)sc(=N)n2Cc1ccc(Cl)cc1 | > 10 | IC50 (PBLUC_HILL_SLOPE 3.98, PBLUC_R_SQUARED 0.233, read-out: LUCIFERASE INFECTION ASSAY - IC50): 6.2 µM
FC(F)(F)Oc1cccc(-c2cnc3ccc(-c4cccs4)nn23)c1 | 7.53 | IC50 (PBLUC_HILL_SLOPE 4.13, PBLUC_R_SQUARED 0.323, read-out: LUCIFERASE INFECTION ASSAY - IC50): 4.43 µM
CC(C)Cn1c(-c2ccccc2F)nc2c(c(=O)c3ccccc3n2C)c1=O | 7.64 | IC50 (PBLUC_HILL_SLOPE 4.02, PBLUC_R_SQUARED 0.715, read-out: LUCIFERASE INFECTION ASSAY - IC50): 4.42 µM
COc1cccc(-c2cn3c(-c4ccccc4Cl)cnc3cn2)c1F | 6.25 | IC50 (PBLUC_HILL_SLOPE 4, PBLUC_R_SQUARED 0.571, read-out: LUCIFERASE INFECTION ASSAY - IC50): 3.61 µM
FC(F)(F)Oc1cccc(-c2cnc3ccc(-c4cncnc4)nn23)c1 | 3.91 | IC50 (PBLUC_HILL_SLOPE 4.12, PBLUC_R_SQUARED 0.479, read-out: LUCIFERASE INFECTION ASSAY - IC50): 2.29 µM
N#C/C(=C\Nc1cc(C(F)(F)F)cc(C(F)(F)F)c1)S(=O)(=O)c1ccc(OC(F)(F)F)cc1 | > 6.54 | IC50 (PBLUC_HILL_SLOPE 4.15, PBLUC_R_SQUARED 0.029, read-out: LUCIFERASE INFECTION ASSAY - IC50): > 6.54 µM
CCc1nn2c(NCc3ccccn3)cc(C)nc2c1-c1ccccc1 | > 9.61 | IC50 (PBLUC_HILL_SLOPE 4, PBLUC_R_SQUARED 0.354, read-out: LUCIFERASE INFECTION ASSAY - IC50): 6.15 µM
CC(Oc1ccc2ccc(=O)oc2c1)C(=O)N1CCc2ccccc21 (configuration not stated) | 6.27 | IC50 (PBLUC_HILL_SLOPE 3.92, PBLUC_R_SQUARED 0.713, read-out: LUCIFERASE INFECTION ASSAY - IC50): 3.58 µM
CC(C)(C)c1cc(NC(=O)Nc2ccc(C#N)cc2)n(-c2ccccc2)n1 | 0.0487 | IC50 [1]: 0.0279 µM
Cc1cc(C)n(-c2ccc(NC(=O)C3(c4ccccc4)CC3)cn2)n1 | 0.834 | IC50 (PBLUC_HILL_SLOPE 3.93, PBLUC_R_SQUARED 0.515, read-out: LUCIFERASE INFECTION ASSAY - IC50): 0.477 µM
CC(OC(=O)c1cccc(-n2cccc2)c1)C(=O)N1CCCC1 (configuration not stated) | 8.03 | IC50 (PBLUC_HILL_SLOPE 4.03, PBLUC_R_SQUARED 0.34, read-out: LUCIFERASE INFECTION ASSAY - IC50): 4.65 µM
Cc1cc(NCc2ccccn2)n2ncc(-c3ccccc3Cl)c2n1 | > 9.43 | IC50 (PBLUC_HILL_SLOPE 4.03, PBLUC_R_SQUARED 0.181, read-out: LUCIFERASE INFECTION ASSAY - IC50): 5.66 µM
COc1ccccc1/C=C(/C(=O)OCc1cc(=O)n2cc(C)ccc2n1)c1ccccc1 | > 10 | IC50 (PBLUC_HILL_SLOPE 4.19, PBLUC_R_SQUARED 0.0967, read-out: LUCIFERASE INFECTION ASSAY - IC50): 6.55 µM

SMILES | IC90 [µM] | also measured
c1ccc(-c2cc(NCCCn3ccnc3)nc3ccccc23)cc1 | 8.58 | IC50 (PBLUC_HILL_SLOPE 4.01, PBLUC_R_SQUARED 0.225, read-out: LUCIFERASE INFECTION ASSAY - IC50): 4.96 µM
O=C(Nc1ccc(F)cc1)C(Sc1nnc(-c2cccs2)[nH]1)c1ccccc1 (configuration not stated) | > 10 | IC50 (PBLUC_HILL_SLOPE 4.17, PBLUC_R_SQUARED 0.509, read-out: LUCIFERASE INFECTION ASSAY - IC50): 6.11 µM
O=C(c1nn(-c2ccccc2)c(=O)c2ccccc12)N(CCCN1CCOCC1)Cc1cccs1 | > 10 | IC50 (PBLUC_HILL_SLOPE 4.06, PBLUC_R_SQUARED 0.124, read-out: LUCIFERASE INFECTION ASSAY - IC50): 8.65 µM
COc1ccc(-n2nc(C)c3c(=O)c(Cl)c(C)[nH]c32)cc1 | > 10.9 | IC50 (PBLUC_HILL_SLOPE 4.15, PBLUC_R_SQUARED 0.0529, read-out: LUCIFERASE INFECTION ASSAY - IC50): 10.4 µM
O=C(Nc1nc(C23CC4CC(CC(C4)C2)C3)cs1)C1=COCCO1 | > 10 | IC50 (PBLUC_HILL_SLOPE 3.95, PBLUC_R_SQUARED 0.0619, read-out: LUCIFERASE INFECTION ASSAY - IC50): 7.07 µM
Cc1cc(C)n(-c2nc(-c3ccccc3)cc(N3CCCCCC3)n2)n1 | 7.45 | IC50 (PBLUC_HILL_SLOPE 3.96, PBLUC_R_SQUARED 0.269, read-out: LUCIFERASE INFECTION ASSAY - IC50): 4.28 µM
Cc1ccccc1-c1nc2oc3ccccc3c(=O)c2c(=O)n1Cc1ccccc1 | 5.78 | IC50 (PBLUC_HILL_SLOPE 4.15, PBLUC_R_SQUARED 0.52, read-out: LUCIFERASE INFECTION ASSAY - IC50): 3.4 µM
Cn1ccnc1Sc1ncnc2ccsc12 | 9.45 | IC50 (PBLUC_HILL_SLOPE 4.08, PBLUC_R_SQUARED 0.748, read-out: LUCIFERASE INFECTION ASSAY - IC50): 5.51 µM
CC(Sc1nc(N)c2ccsc2n1)c1nc(-c2ccccc2)no1 (configuration not stated) | > 10 | IC50 (PBLUC_HILL_SLOPE 3.96, PBLUC_R_SQUARED 0.141, read-out: LUCIFERASE INFECTION ASSAY - IC50): > 10 µM
CCn1c(NC(=O)Cc2ccc(C)c(OC)c2)nc2ccccc21 | 8.25 | IC50 (PBLUC_HILL_SLOPE 4.04, PBLUC_R_SQUARED 0.646, read-out: LUCIFERASE INFECTION ASSAY - IC50): 4.79 µM
COCOc1ccc(-c2cc(-c3ccc(S(C)(=O)=O)cc3)cnc2N)cc1 | 1.3 | IC50 (PBLUC_HILL_SLOPE 4.16, PBLUC_R_SQUARED 0.931, read-out: LUCIFERASE INFECTION ASSAY - IC50): 0.765 µM
O=C(CNc1ccc(C(F)(F)F)cc1Cl)Nc1cccc(C(=O)NC2CC2)c1 | 7.38 | IC50 (PBLUC_HILL_SLOPE 3.94, PBLUC_R_SQUARED 0.579, read-out: LUCIFERASE INFECTION ASSAY - IC50): 4.23 µM
CCOc1ccc(OCC)c(NC(=O)/C=C/c2ccc(OCc3cn4ccccc4n3)cc2)c1 | > 10 | IC50 (PBLUC_HILL_SLOPE 4.17, PBLUC_R_SQUARED 0.3, read-out: LUCIFERASE INFECTION ASSAY - IC50): 8.87 µM
CCNC(=O)C(C)NC(=O)c1cc(-c2ccccc2)nc2c1cnn2Cc1ccccc1Cl (configuration not stated) | 0.0487 | IC50 [1]: 0.0279 µM
O=C(NC1CC1)c1ccc(CN(C2CC2)S(=O)(=O)c2cccs2)cc1 | > 10 | IC50 (PBLUC_HILL_SLOPE 4.12, PBLUC_R_SQUARED 0.383, read-out: LUCIFERASE INFECTION ASSAY - IC50): 7.92 µM
O=C1C(=O)N(Cc2ccncc2)c2ccccc21 | > 13.9 | IC50 (PBLUC_HILL_SLOPE 4.07, PBLUC_R_SQUARED 0.778, read-out: LUCIFERASE INFECTION ASSAY - IC50): 8.1 µM
O=C(Cc1ccc(Cl)cc1)N1CCc2nc(NCc3cccc(Oc4ccccc4)c3)ncc2C1 | > 6.8 | IC50 (PBLUC_HILL_SLOPE 4.18, PBLUC_R_SQUARED 0.529, read-out: LUCIFERASE INFECTION ASSAY - IC50): 4.95 µM
Cc1ccc(N(CC(=O)Nc2ccc(F)cc2F)C2=NC(=O)CS2)cc1 | 9.47 | IC50 (PBLUC_HILL_SLOPE 3.93, PBLUC_R_SQUARED 0.513, read-out: LUCIFERASE INFECTION ASSAY - IC50): 5.41 µM
N#Cc1ccc(-c2cnc3cnc(-c4cccc(Cl)c4)cn23)cc1 | > 9.98 | IC50 (PBLUC_HILL_SLOPE 4, PBLUC_R_SQUARED 0.258, read-out: LUCIFERASE INFECTION ASSAY - IC50): 8.15 µM
O=C(NNC(=O)c1csnn1)c1ccc(C(F)(F)F)cc1 | 1.19 | IC50 (PBLUC_HILL_SLOPE 3.95, PBLUC_R_SQUARED 0.658, read-out: LUCIFERASE INFECTION ASSAY - IC50): 0.684 µM
